Reference: the supplement of paper PMC10307832

Experiments:
Test in all cases: relative viability (nuclei count vs DMSO), 5 days (fraction); higher = more cells survive
17-AAG = compound: C=CCNC1=C2C[C@@H](C)C[C@H](OC)[C@H](O)[C@@H](C)/C=C(\C)[C@H](OC(N)=O)[C@@H](OC)/C=C\C=C(/C)C(=O)NC(=CC1=O)C2=O [17-AAG]
Method in brief: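 Only plates meeting two conditions passed: control CV below 25% and at least one doubling. Lung cancer cell lines, kept overnight at 37 °C in 1536-well plates, were pinned with five library-drug doses (not always all listed) √10 apart on vehicle-anchored plates and grown 5 days without medium change. A one-step fix, permeabilisation and Hoechst stain preceded 4× imaging and MetaXpress nuclear counting. Viability equals treated-well nuclei divided by vehicle-well nuclei, as the median over plates.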

17-AAG + AZD7762 = compound: C=CCNC1=C2C[C@@H](C)C[C@H](OC)[C@H](O)[C@@H](C)/C=C(\C)[C@H](OC(N)=O)[C@@H](OC)/C=C\C=C(/C)C(=O)NC(=CC1=O)C2=O [17-AAG] + NC(=O)Nc1cc(-c2cccc(F)c2)sc1C(=O)N[C@H]1CCCNC1 [AZD7762] (partner 0.2 µM)
Method in brief: (§1)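 After 5 days of treatment, lung cancer cells in 1536-well plates were fixed and stained in a single step (final 0.05% Triton X-100, 1% formaldehyde, 1 ug/ml Hoechst) and their nuclei counted on 4× images. Treatment had been applied by pin tool the day after seeding as one drug alone or as a fixed anchor-drug dose with five library-drug doses (not always all listed) in √10 steps. Relative viability is the nuclei count of treated wells divided by that of vehicle wells, and values are medians of duplicate plates.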

17-AAG + Trametinib = compound: C=CCNC1=C2C[C@@H](C)C[C@H](OC)[C@H](O)[C@@H](C)/C=C(\C)[C@H](OC(N)=O)[C@@H](OC)/C=C\C=C(/C)C(=O)NC(=CC1=O)C2=O [17-AAG] + CC(=O)Nc1cccc(-n2c(=O)n(C3CC3)c(=O)c3c(Nc4ccc(I)cc4F)n(C)c(=O)c(C)c32)c1 [Trametinib] (partner 0.02 µM)
Method in brief: as §1

17-AAG + Tozasertib = compound: C=CCNC1=C2C[C@@H](C)C[C@H](OC)[C@H](O)[C@@H](C)/C=C(\C)[C@H](OC(N)=O)[C@@H](OC)/C=C\C=C(/C)C(=O)NC(=CC1=O)C2=O [17-AAG] + Cc1cc(Nc2cc(N3CCN(C)CC3)nc(Sc3ccc(NC(=O)C4CC4)cc3)n2)n[nH]1 [Tozasertib] (partner 0.1 µM)
Method in brief: as §1

Cell Line	relative viability (17-AAG; 0.00128 µM)	relative viability (17-AAG; 0.004048 µM)	relative viability (17-AAG; 0.0128 µM)	relative viability (17-AAG; 0.04048 µM)	relative viability (17-AAG; 0.128 µM)	relative viability (17-AAG + AZD7762; first compound 0.00128 µM)	relative viability (17-AAG + AZD7762; first compound 0.004048 µM)	relative viability (17-AAG + AZD7762; first compound 0.0128 µM)	relative viability (17-AAG + AZD7762; first compound 0.04048 µM)	relative viability (17-AAG + AZD7762; first compound 0.128 µM)	relative viability (17-AAG + Trametinib; first compound 0.00128 µM)	relative viability (17-AAG + Trametinib; first compound 0.004048 µM)	relative viability (17-AAG + Trametinib; first compound 0.0128 µM)	relative viability (17-AAG + Trametinib; first compound 0.04048 µM)	relative viability (17-AAG + Trametinib; first compound 0.128 µM)	relative viability (17-AAG + Tozasertib; first compound 0.00128 µM)	relative viability (17-AAG + Tozasertib; first compound 0.004048 µM)	relative viability (17-AAG + Tozasertib; first compound 0.0128 µM)	relative viability (17-AAG + Tozasertib; first compound 0.04048 µM)	relative viability (17-AAG + Tozasertib; first compound 0.128 µM)
NCI-H1703	0.911	0.734	0.173	0.191	0.145	0.114	0.156	0.113	0.109	0.134										
NCI-H1755	1.01	0.943	0.897	0.433	0.238	0.47	0.468	0.362	0.234	0.195	0.808	0.716	0.705	0.741	0.23	0.609	0.477	0.481	0.363	0.215
NCI-H2087	0.984	0.767	0.16	0.177	0.134	1.28	1.3	0.471	0.154	0.116	0.206	0.213	0.184	0.115	0.124	0.306	0.228	0.208	0.148	0.1
NCI-H2228	1.08	0.72	0.125	0.112	0.152						0.378	0.232	0.102	0.113	0.144	0.301	0.151	0.105	0.131	0.128
NCI-H838	1.03	0.963	0.575	0.187	0.177	0.978	0.849	0.669	0.633	0.604	0.536	0.487	0.126	0.115	0.1	0.315	0.309	0.161	0.135	0.134
NCI-H661	0.937	0.998	0.953	0.549	0.295						0.588	0.533	0.522	0.295	0.23	0.372	0.326	0.358	0.344	0.289
NCI-H596	0.931	0.917	0.955	0.816	0.404	1.12	1.05	1.18	1.04	0.397	0.841	0.852	0.767	0.704	0.308	0.959	0.832	1.01	0.443	0.258
EBC-1	1.02	0.882	0.166	0.15	0.132															
NCI-H1299	1.01	0.977	0.981	0.931	0.538															
SW 1573	0.973	0.95	0.542	0.151	0.104						0.589	0.381	0.161	0.117	0.0829	0.234	0.254	0.117	0.104	0.0907
COR-L23	0.987	1.02	1.01	0.668	0.147						0.664	0.504	0.438	0.158	0.0809	0.2	0.25	0.225	0.158	0.0795
NCI-H1650	0.89	0.477	0.197	0.2	0.144						0.657	0.252	0.143	0.126	0.114	0.458	0.317	0.215	0.175	0.206
SK-LU-1	1.06	0.796	0.315	0.229	0.181						0.436	0.473	0.217	0.195	0.216	0.426	0.243	0.128	0.152	0.139
IA-LM	0.954	0.956	0.874	0.393	0.118															
NCI-H2009	0.961	0.995	0.93	0.894	0.274						0.276	0.269	0.252	0.218	0.0853	0.727	0.72	0.756	0.65	0.259
NCI-H1563	1.03	0.893	0.599	0.629	0.519															
SK-MES-1	0.966	0.86	0.45	0.181	0.159						0.562	0.401	0.221	0.179	0.168	0.872	0.851	0.168	0.164	0.143
ABC-1	0.916	0.978	1.09	0.892	0.708	0.902	0.726	0.844	0.835	0.498						0.163	0.2	0.185	0.207	0.175
UMC-11	0.943	1.01	0.839	0.478	0.195						0.672	0.773	0.629	0.234	0.145	0.222	0.219	0.225	0.217	0.222
NCI-H1792	0.888	0.772	0.347	0.165	0.181	0.494	0.302	0.0583	0.0445	0.0494	0.483	0.337	0.216	0.0858	0.056					
NCI-H2023	0.919	0.724	0.122	0.0716	0.0728						0.557	0.266	0.0867	0.0826	0.0692	0.51	0.351	0.102	0.0765	0.0654
COR-L 105	0.917	0.966	1	0.488	0.547						0.473	0.406	0.501	0.375	0.335	0.458	0.356	0.384	0.713	0.418
